Source: US20240325394A1, “SALT AND CRYSTAL FORM OF NITROGEN-CONTAINING HETEROCYCLIC DERIVATIVE, PREPARATION METHOD THEREFOR AND APPLICATION THEREOF” (SHANGHAI HANSOH BIOMEDICAL CO., LTD., priority 2020, published 2024)
Read-outs that look alike come from different tables or passages of the source.

Key:
[1] = Pharmacokinetics in mice (plasma) after oral administration; format: in vivo, Balb/c mice
Procedure: 5 g of Hydroxyethyl cellulose (HEC, CMC-Na, viscosity: 800-1200 Cps) was weighed, dissolved in 1000 mL of purified water, and 10 g of Tween 80 was added. The mixture was mixed well to form a clear solution.
The compounds of the embodiments were weighed and added into 4-mL glass bottles, respectively, 2.4 mL of the solution was added, and ultrasound was performed for 10 minutes to obtain a colorless clear solution with a concentration of 1 mg/mL.
Balb/C mice, males; PO, after overnight fasting, respectively, at a dose of 10 mg/kg, administered in a volume of 10 mL/kg.
Blood samples were collected before administration and 0.083 h, 0.25 h, 0.5 h, 1 h, 2 h, 4 h, 6 h and 8 h after administration, the blood was placed in EDTA-2K tube, centrifuged at 4° C. 6000 rpm for 6 min to separate plasma, and stored at −80° C.; food was consumed 4 hours after drug administration.

CYP450 3A4 = biological target: T1, CYP450 3A4 (Homo sapiens, UniProt P08684); assay: CYP enzyme single point inhibition test, human liver microsomes, 3A4 (3A4-M, 3A4-T); format: in vitro ADME; settings: single point method
T1 construct: from tissue; host or cells: human liver microsomes
Procedure: (§1) Using human liver microsomal incubation system, the inhibition of CYP450 enzyme subtypes by compounds was rapidly predicted by single point method.
(§2) 2.5 mM NADPH: 100 mM phosphate buffer was added to 4.165 mg of NADPH (reduced nicotinamide adenine dinucleotide phosphate) to 2 mL. 0.25 mg/mL microsome: 4 mL of 100 mM phosphate buffer was added to 50 μL of 20 mg/mL microsome and mixed well.
(§3) The embodiment compound to be tested was weighed and diluted to 10 mM with DMSO and then diluted to 100 µM with 100 mM phosphate buffer.
(§4) • 1. In a 96-well plate, 40 μL of liver microsomes, 10 μL of substrate, 10 μL of compound to be tested were pre-incubated for 3 min. • 2. 40 μL of NADPH was added. • 3. 300 μL of acetonitrile termination solution containing internal standard was added at 20 min. • 4. Centrifugal injection.

CYP450 2C9 = biological target: T2, CYP450 2C9 (Homo sapiens, UniProt P11712); assay: CYP enzyme single point inhibition test, human liver microsomes, 2C9; format: in vitro ADME; settings: single point method
T2 construct: from tissue; host or cells: human liver microsomes
Procedure: as §1, §2, §3, §4

[2] = Plasma stability, human plasma; format: in vitro ADME
Method in brief: (§5)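 Compound from a 10 μM working solution in 100 mM phosphate buffer was incubated at 37°C in anticoagulated plasma from each species, with propantheline as positive control. Aliquots taken at 0, 15, 30, 60, 90 and 120 min were quenched in acetonitrile with internal standard. Remaining compound was quantified by LC-MS/MS (positive ESI, MRM).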

CYP450 2C19 = biological target: T3, CYP450 2C19 (Homo sapiens, UniProt P33261); assay: CYP enzyme single point inhibition test, human liver microsomes, 2C19; format: in vitro ADME; settings: single point method
T3 construct: from tissue; host or cells: human liver microsomes
Procedure: as §1, §2, §3, §4

CYP450 1A2 = biological target: T4, CYP450 1A2 (Homo sapiens, UniProt P05177); assay: CYP enzyme single point inhibition test, human liver microsomes, 1A2; format: in vitro ADME; settings: single point method
T4 construct: from tissue; host or cells: human liver microsomes
T4 sequence (P05177 1-516): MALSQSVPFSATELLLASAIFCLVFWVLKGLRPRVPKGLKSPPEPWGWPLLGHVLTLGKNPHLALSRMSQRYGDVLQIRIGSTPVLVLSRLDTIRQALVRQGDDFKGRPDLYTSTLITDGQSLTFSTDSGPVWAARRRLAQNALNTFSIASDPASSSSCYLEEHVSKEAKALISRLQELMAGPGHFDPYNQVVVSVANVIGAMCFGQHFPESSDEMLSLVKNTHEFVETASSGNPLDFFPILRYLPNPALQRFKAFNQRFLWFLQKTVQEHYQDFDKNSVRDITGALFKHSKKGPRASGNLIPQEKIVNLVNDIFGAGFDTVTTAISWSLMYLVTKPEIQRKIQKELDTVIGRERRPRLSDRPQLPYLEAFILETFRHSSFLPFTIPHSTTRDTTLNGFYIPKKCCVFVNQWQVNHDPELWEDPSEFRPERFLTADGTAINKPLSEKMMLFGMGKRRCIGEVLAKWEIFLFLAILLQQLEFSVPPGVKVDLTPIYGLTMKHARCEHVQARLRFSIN
Procedure: as §1, §2, §3, §4

CYP450 2D6 = biological target: T5, CYP450 2D6 (Homo sapiens, UniProt P10635); assay: CYP enzyme single point inhibition test, human liver microsomes, 2D6; format: in vitro ADME; settings: single point method
T5 construct: from tissue; host or cells: human liver microsomes
Procedure: as §1, §2, §3, §4

[3] = Plasma stability, dog plasma; format: in vitro ADME; settings: dog plasma, 37° C.
Method in brief: as §5

[4] = Plasma stability, mouse plasma; format: in vitro ADME
Method in brief: as §5

[5] = Plasma stability, rat plasma; format: in vitro ADME; settings: rat plasma, 37° C.
Method in brief: as §5

[6] = 3A4-M, read-out: IC50 (μM) 3A4-M
[7] = 3A4-T, read-out: IC50 (μM) 3A4-T
[8] = Balb/c mice, PO 10 mg/kg, plasma

T1 sequence (P08684 whole entry): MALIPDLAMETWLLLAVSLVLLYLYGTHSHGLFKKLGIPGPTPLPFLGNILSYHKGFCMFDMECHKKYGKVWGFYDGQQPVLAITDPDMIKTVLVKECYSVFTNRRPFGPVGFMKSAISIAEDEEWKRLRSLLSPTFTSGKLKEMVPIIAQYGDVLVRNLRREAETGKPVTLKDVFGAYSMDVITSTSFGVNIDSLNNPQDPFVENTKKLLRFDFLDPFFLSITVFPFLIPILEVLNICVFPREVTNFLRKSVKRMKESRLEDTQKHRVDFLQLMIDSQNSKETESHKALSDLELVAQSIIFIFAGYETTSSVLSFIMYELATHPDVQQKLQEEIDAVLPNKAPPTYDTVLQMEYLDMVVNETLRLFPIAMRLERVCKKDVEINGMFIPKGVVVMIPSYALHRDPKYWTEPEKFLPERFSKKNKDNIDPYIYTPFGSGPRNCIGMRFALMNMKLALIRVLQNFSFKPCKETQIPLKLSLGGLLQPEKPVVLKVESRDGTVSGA
T2 sequence (P11712 whole entry): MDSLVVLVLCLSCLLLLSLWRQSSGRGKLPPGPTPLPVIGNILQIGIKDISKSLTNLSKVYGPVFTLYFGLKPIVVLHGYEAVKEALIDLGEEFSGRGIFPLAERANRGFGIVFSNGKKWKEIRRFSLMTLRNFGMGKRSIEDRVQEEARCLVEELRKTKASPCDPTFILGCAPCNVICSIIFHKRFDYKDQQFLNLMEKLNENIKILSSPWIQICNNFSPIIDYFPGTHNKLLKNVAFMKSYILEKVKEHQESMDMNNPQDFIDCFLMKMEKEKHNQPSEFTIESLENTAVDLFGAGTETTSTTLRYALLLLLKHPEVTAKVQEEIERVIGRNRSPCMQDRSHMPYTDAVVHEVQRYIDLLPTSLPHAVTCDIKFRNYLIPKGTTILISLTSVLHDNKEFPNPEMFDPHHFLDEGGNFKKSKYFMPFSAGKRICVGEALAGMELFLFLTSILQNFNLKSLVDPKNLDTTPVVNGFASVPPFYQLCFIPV
T5 sequence (P10635 whole entry): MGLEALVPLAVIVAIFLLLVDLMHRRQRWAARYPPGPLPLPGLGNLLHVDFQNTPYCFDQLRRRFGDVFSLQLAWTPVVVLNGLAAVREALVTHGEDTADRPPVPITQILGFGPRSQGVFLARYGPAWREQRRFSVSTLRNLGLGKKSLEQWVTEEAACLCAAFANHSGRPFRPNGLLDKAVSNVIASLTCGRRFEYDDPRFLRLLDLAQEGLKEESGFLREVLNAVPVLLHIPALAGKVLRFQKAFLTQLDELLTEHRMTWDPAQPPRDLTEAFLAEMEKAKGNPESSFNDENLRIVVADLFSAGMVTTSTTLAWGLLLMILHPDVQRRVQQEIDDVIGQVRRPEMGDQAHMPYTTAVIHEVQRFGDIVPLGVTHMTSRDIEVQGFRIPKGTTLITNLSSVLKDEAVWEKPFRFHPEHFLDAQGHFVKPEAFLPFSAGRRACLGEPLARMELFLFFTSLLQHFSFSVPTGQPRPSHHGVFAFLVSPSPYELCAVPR
T3 sequence (P33261 whole entry): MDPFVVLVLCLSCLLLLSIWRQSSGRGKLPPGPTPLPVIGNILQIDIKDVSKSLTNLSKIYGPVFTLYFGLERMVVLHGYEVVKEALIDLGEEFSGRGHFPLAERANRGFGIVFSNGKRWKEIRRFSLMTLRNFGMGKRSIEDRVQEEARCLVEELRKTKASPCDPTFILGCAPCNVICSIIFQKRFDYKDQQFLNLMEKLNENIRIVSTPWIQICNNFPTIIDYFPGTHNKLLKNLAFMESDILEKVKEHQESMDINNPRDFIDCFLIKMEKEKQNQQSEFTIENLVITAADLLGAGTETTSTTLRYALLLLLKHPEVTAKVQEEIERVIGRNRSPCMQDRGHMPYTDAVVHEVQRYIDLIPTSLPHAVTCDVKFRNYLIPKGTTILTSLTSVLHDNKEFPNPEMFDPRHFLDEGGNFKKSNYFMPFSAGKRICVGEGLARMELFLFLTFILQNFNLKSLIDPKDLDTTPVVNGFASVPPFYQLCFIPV

Compound `C=CC(=O)N1C[C@H](C)N(c2nc(=O)n(-c3c(SC)ccnc3C(C)C)c3nc(-c4c(N)ccc(Cl)c4F)c(Cl)cc23)C[C@H]1C` (atropisomer, axis not shown) [Embodiment 13-1, P-4-((2S,5R)-4-Acryloyl-2,5-dimethylpiperazin-1-yl)-7-(6-amino-3-chloro-2-fluorophenyl)-6-chloro-1-(2-isopropyl-4-(methylthio)pyridin-3-yl)pyrido[2,3-d]pyrimidin-2(1H)-one] has a half-life ([1]; male, Balb/c, mouse, in vivo, po, 10 mg/kg) of 60 min, an IC50 (CYP450 3A4; [6]) of 4.7 µM and an IC50 (CYP450 3A4; [7]) of 9.1 µM. The IC50 (CYP450 2C9) was 58.8 µM, the “Residual rate (%) 0 min” value ([2]; human, 0.5 μM) was 100.00% and the “Residual rate (%) 15 min” value ([2]; human, 0.5 μM) was 102.34%. For the same compound, the “Residual rate (%) 30 min” value ([2]; human, 0.5 μM) was 100.28%, the “Residual rate (%) 60 min” value ([2]; human, 0.5 μM) was 90.27% and the “Residual rate (%) 120 min” value ([2]; human, 0.5 μM) was 87.22%. For the same compound, the IC50 (CYP450 2C19) was 28.8 µM, the IC50 (CYP450 1A2) was 66.7 µM and the IC50 (CYP450 2D6) was 21.2 µM. For the same compound, the “Residual rate (%) 0 min” value [3] was 100.00%, the “Residual rate (%) 15 min” value [3] was 97.71% and the “Residual rate (%) 30 min” value [3] was 96.32%. The “Residual rate (%) 60 min” value [3] was 94.86%, the “Residual rate (%) 120 min” value [3] was 92.49% and the “Residual rate (%) 0 min” value ([4]; mouse, 0.5 μM) was 100.00%. For the same compound, the “Residual rate (%) 15 min” value ([4]; mouse, 0.5 μM) was 100.58%, the “Residual rate (%) 30 min” value ([4]; mouse, 0.5 μM) was 99.52% and the “Residual rate (%) 60 min” value ([4]; mouse, 0.5 μM) was 99.64%. The “Residual rate (%) 120 min” value ([4]; mouse, 0.5 μM) was 92.32%, the “Residual rate (%) 0 min” value [5] was 100.00% and the “Residual rate (%) 15 min” value [5] was 95.57%. The “Residual rate (%) 30 min” value [5] was 96.73%, the “Residual rate (%) 60 min” value [5] was 93.97% and the “Residual rate (%) 120 min” value [5] was 91.93%.
In the case of “P-4-((2S,5R)-4-acryloyl-2,5-dimethylpiperazin-1-yl)-6-fluoro-7-(2-fluoro-6-hydroxyphenyl)-1-(2-isopropyl-4-(methylthio)pyridin-3-yl)pyrido[2,3-d]pyrimidin-2(1H)-one [Embodiment 2-1]”, the “AUC0-∞” value [1, 8] is reported as 1373 ng·h/mL, the Cmax [1, 8] is reported as 1823 ng/mL and the MRT [1, 8] is reported as 42 min. It also gave a T1/2 [1, 8] of 36 min, a Tmax [1, 8] of 15 min and an IC50 (CYP450 3A4; [6]) of 19 µM. For the same compound, the IC50 (CYP450 3A4; [7]) was > 100 µM, the IC50 (CYP450 2C9) was 84.6 µM and the “Residual rate (%) 0 min” value ([2]; human plasma, 37° C.) was 100.00%. The “Residual rate (%) 15 min” value ([2]; human plasma, 37° C.) was 97.39%, the “Residual rate (%) 30 min” value ([2]; human plasma, 37° C.) was 98.79% and the “Residual rate (%) 60 min” value ([2]; human plasma, 37° C.) was 94.50%. The “Residual rate (%) 120 min” value ([2]; human plasma, 37° C.) was 87.91%, the IC50 (CYP450 2C19) was > 100 µM and the IC50 (CYP450 1A2) was > 100 µM. For the same compound, the IC50 (CYP450 2D6) was > 100 µM, the “Residual rate (%) 0 min” value [3] was 100.00% and the “Residual rate (%) 15 min” value [3] was 97.87%. For the same compound, the “Residual rate (%) 30 min” value [3] was 96.23%, the “Residual rate (%) 60 min” value [3] was 92.42% and the “Residual rate (%) 120 min” value [3] was 85.48%. The “Residual rate (%) 0 min” value ([4]; mouse plasma, 37° C.) was 100.00%, the “Residual rate (%) 15 min” value ([4]; mouse plasma, 37° C.) was 102.67% and the “Residual rate (%) 30 min” value ([4]; mouse plasma, 37° C.) was 98.51%. For the same compound, the “Residual rate (%) 60 min” value ([4]; mouse plasma, 37° C.) was 95.49%, the “Residual rate (%) 120 min” value ([4]; mouse plasma, 37° C.) was 84.58% and the “Residual rate (%) 0 min” value [5] was 100.00%. For the same compound, the “Residual rate (%) 15 min” value [5] was 99.04%, the “Residual rate (%) 30 min” value [5] was 101.03% and the “Residual rate (%) 60 min” value [5] was 97.16%. The “Residual rate (%) 120 min” value [5] was 84.63%.
